From ChEMBL document CHEMBL1141050, “Design and synthesis of a novel peptidomimetic inhibitor of HIV-1 Tat-TAR interactions: squaryldiamide as a new potential bioisostere of unsubstituted guanidine” (Bioorg Med Chem Lett, 2005) come the findings set out here.

Common to all, as to set-up: species or system Human immunodeficiency virus 1
Experiment [1] deals with T1, Protein Tat (Human immunodeficiency virus type 1 group M subtype B (isolate HXB2)(HIV-1), UniProt P04608).
T1 sequence (P04608 whole entry): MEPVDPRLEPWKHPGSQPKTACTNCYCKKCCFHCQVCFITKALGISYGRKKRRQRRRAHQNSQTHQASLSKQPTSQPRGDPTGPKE
Briefly: In vitro binding affinity towards Tat/TAR to determine interaction between TAR RNA and Tat peptide at room temperature using fluorescence spectrophotometer.

Experiment [2] deals with T1, Protein Tat. Briefly: In vitro binding affinity towards Tat/TAR to determine interaction between TAR RNA and Tat peptide at room temperature using fluorescence spectrophotometer; nb denotes no binding.
For experiment [3], the target named is T1, Protein Tat. Briefly: In vitro binding affinity towards Tat/TAR to determine interaction between TAR RNA and Tat peptide at room temperature using fluorescence spectrophotometer; mb denotes multiple binding.

`N=c1c(O)c(O)/c1=N\CCCC(N)COC(=O)NC(CCCN=C(N)N)COC(N)=O` (configuration not stated): the Kd at Protein Tat [1] is 741 µM.
Take `N=c1c(O)c(O)/c1=N\CCCC(N)COC(=O)NC(CCCCN)COC(N)=O` (configuration not stated): the Kd entry at Protein Tat [2] was “Not Active”.
Regarding `NCCCC[C@H](COC(N)=O)NC(=O)CN(CCCCN)C(=O)OCCN`, at Protein Tat [2], the dissociation constant Kd result is “Not Active”.
`N=c1c(O)c(O)/c1=N/CCC[C@H](N)COC(=O)N(CCCCN)CC(=O)N[C@H](CCCCN)COC(N)=O` gave a Kd at Protein Tat [1] of 7.7 µM. This counts as single-digit micromolar.
With `NC(=O)OCCNC(=O)CNC(=O)OC[C@@H](N)CCCN=C(N)N`, on Protein Tat [3], the dissociation constant Kd result is given as “Multiple binding”.
As for `NCCCC[C@H](COC(N)=O)NC(=O)CN(CCCCN)C(=O)OC[C@@H](N)CCCN=C(N)N[N+](=O)[O-]`, binding on Protein Tat [1] was put at a Kd of 952 µM.
On Protein Tat [1], `N=C(N)NCCC[C@H](N)COC(=O)N(CCCCN)CC(=O)N[C@H](CCCCN)COC(N)=O` gave a Kd of 1.8 µM.

The Kd is the concentration at which binding is half-saturated. A higher Kd goes with lower affinity.
